Measurements taken from publication PMC4627230, “Identification of TAX2 peptide as a new unpredicted anti-cancer agent” (Oncotarget, 2015).

Legend:
HUVECs [1] = assay: Boyden chamber / Transwell migration assay; assay type: cell-based, human
Protocol: Figure 2 TAX2 peptide impairs endothelial cell migration and inhibits angiogenesis in vitro and ex vivo A. HUVECs were treated with TAX2 (100 μM) or scrambled peptide (Ctrl, 100 μM). CD47 was immunoprecipitated from total protein lysates using anti-CD47 (clone B6H12) and non-specific IgGs were used as a negative control. Immunocomplexes were then submitted to SDS-PAGE and immunoblotted (IB) using specific TSP-1 and CD47 antibodies. Histogram represents the quantification of co-immunoprecipitated TSP-1 relative to immunoprecipitated CD47. Results are expressed as percentage compared to control (n = 3 separate experiments, t test). B. HUVECs (1 × 10^5 per well) were grown at confluence and then cell proliferation was inhibited by incubating with 10 μg/mL mitomycin C for 2 h. Migration assays were performed for 9 h with or without TAX2 peptide (100 μM), as described in Materials and Methods. Photographs (100×) were taken every 3 h. Graph represents the quantification of the wounded area. […] Hoechst-stained migrating cells attached on outside surface of the top chamber were photographed (20× objective) and counted. Results are expressed as percentage of migrated cells as compared to control. […] After 8 h incubation, HUVEC tube-like formation was observed on an inverted microscope (40×) and quantification of network total length was done using ImageJ software. […] Data are expressed as the mean ± SE from at least 3 independent experiments, each performed in triplicate. […] The transcriptional level of TSP-1 was assessed by RT-PCR and normalized to β-actin. […] After 6 days incubation in the presence of 100 μM TAX2 or control peptide (Ctrl), images were taken with an inverted microscope (40×) and microvessel area was quantified using ImageJ software. […]
Figure 3 Anti-angiogenic properties of TAX2 are mediated by TSP-1 binding to CD36 A. Expression of CD36 in HUVECs was assessed by immunoblotting (left panel) and immunofluorescence staining (right panel, red). […] The presence of TSP-1 in immunocomplexes was quantified by densitometric analysis relative to immunoprecipitated CD36. […]

TSP-1 = assay: Microscale thermophoresis; assay type: binding; details: data not shown
[2] = test system: TSP-1 binding to β1 integrin; assay: Co-immunoprecipitation TSP-1 with β1 integrin; assay type: cell-based, human; details: HUVECs, 100 μM; total protein lysates
Protocol: Protein lysates prepared in ice-cold lysis buffer or conditioned media were subjected to immunoprecipitation assay using the Pierce Co-IP kit (Thermo Fisher Scientific) according to the manufacturer's protocol. 10 μg of antibody (anti CD47, anti-CD36, anti-FGF2, anti-VEGF, anti-β1 integrin and anti-LRP1 heavy chain) or non-specific IgGs were incubated with the delivered resin and covalently coupled. The antibody-coupled resin was incubated with whole HUVEC protein lysate overnight at 4°C under gentle agitation (no cross-linker was used to stabilize protein complexes before HUVEC lysis). Then the resin was washed and the protein complexes bound to the antibody were eluted. Immunoprecipitated protein complexes were solubilized under denaturing and reducing conditions, heated to 100°C for 5 min and analyzed by immunoblotting as described above. […]
receptors. HUVECs were treated with TAX2 (100 μM) or scrambled peptide (Ctrl, 100 μM). FGF-2 and VEGF were immunoprecipitated from conditioned media using anti-FGF-2 (clone C-18) and anti-VEGF (clone C-1), respectively. β1 integrin and LRP-1 were immunoprecipitated from total protein lysates using anti-β1 integrin (clone BV7) and anti-LRP-1 heavy chain (clone 8G1), respectively. […] Histogram represents the quantification of relative ligand-bound TSP-1 under TAX2 treatment as compared to control. […]

[3] = test system: lung metastasis of invasive B16F10 melanoma cells; assay: Experimental lung metastasis; assay type: in vivo; details: data not shown
HUVECs [4] = assay: Wound-healing migration assay; assay type: cell-based, human; details: 100 μM, 9 h, after mitomycin C, mean of 3 in quadruplicate
Protocol: Figure 2 TAX2 peptide impairs endothelial cell migration and inhibits angiogenesis in vitro and ex vivo A. HUVECs were treated with TAX2 (100 μM) or scrambled peptide (Ctrl, 100 μM). CD47 was immunoprecipitated from total protein lysates using anti-CD47 (clone B6H12) and non-specific IgGs were used as a negative control. Immunocomplexes were then submitted to SDS-PAGE and immunoblotted (IB) using specific TSP-1 and CD47 antibodies. Histogram represents the quantification of co-immunoprecipitated TSP-1 relative to immunoprecipitated CD47. Results are expressed as percentage compared to control (n = 3 separate experiments, t test). B. HUVECs (1 × 10^5 per well) were grown at confluence and then cell proliferation was inhibited by incubating with 10 μg/mL mitomycin C for 2 h. […] Graph represents the quantification of the wounded area. […] Hoechst-stained migrating cells attached on outside surface of the top chamber were photographed (20× objective) and counted. Results are expressed as percentage of migrated cells as compared to control. […] After 8 h incubation, HUVEC tube-like formation was observed on an inverted microscope (40×) and quantification of network total length was done using ImageJ software. […] Data are expressed as the mean ± SE from at least 3 independent experiments, each performed in triplicate. […] The transcriptional level of TSP-1 was assessed by RT-PCR and normalized to β-actin. […]

In the case of “CEVSQLLKGDAC (disulfide) [TAX2, CD47-derived cyclic disulfide dodecapeptide …]”, the “inhibition of endothelial cell migration (Boyden chamber)” value (HUVECs [1]; HUVECs, 100 μM, 12 h, EGM-2, mean of 5 in triplicate) is reported as 50%, the “prevention of endothelial cell migration in presence of CD36 blocking antibody” value (HUVECs [1]; HUVECs, 100 μM, 12 h, anti-CD36 10 μg/mL, n = 3) is reported as “wholly reversed” and the “concentration of optimal inhibition of endothelial cell migration” value (HUVECs [1]; dose-response assay, data not shown, migration format not specified) is reported as 100 µM. For the same sequence, the “binding to TSP-1 by microscale thermophoresis” value (TSP-1) was “confirmed”, the “TSP-1 binding to β1 integrin” value [2] was “does not affect” and the lung metastasis formation [3] was “did not increase metastasis formation”. For the same sequence, the “endothelial cell migration rate (wound healing)” value (HUVECs [4]) was “reduced migration rate”.
